Data reported in the supplement of paper PMC10307832.

Columns and labels:
Test in all cases: relative viability (nuclei count vs DMSO), 5 days (fraction); higher = more cells survive
Ruxolitinib + Trametinib = compound: N#CC[C@H](C1CCCC1)n1cc(-c2ncnc3[nH]ccc23)cn1 [Ruxolitinib] + CC(=O)Nc1cccc(-n2c(=O)n(C3CC3)c(=O)c3c(Nc4ccc(I)cc4F)n(C)c(=O)c(C)c32)c1 [Trametinib] (partner 0.02 µM)
Outline: (§1)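 Relative viability was taken as the ratio of nuclei in treated wells to nuclei in vehicle wells. Lung cancer cell lines in 1536-well plates received compounds by pin tool one day after seeding, either one drug alone or a fixed anchor-drug dose plus five library-drug doses (not always all listed) in √10 steps. Nuclei were counted on 4× images after 5 days of treatment, and values are medians of duplicate plates.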

Vismodegib + Alpelisib = compound: CS(=O)(=O)c1ccc(C(=O)Nc2ccc(Cl)c(-c3ccccn3)c2)c(Cl)c1 [Vismodegib] + Cc1nc(NC(=O)N2CCC[C@H]2C(N)=O)sc1-c1ccnc(C(C)(C)C(F)(F)F)c1 [Alpelisib] (partner 2 µM)
Outline: as §1

Vismodegib + Navitoclax = compound: CS(=O)(=O)c1ccc(C(=O)Nc2ccc(Cl)c(-c3ccccn3)c2)c(Cl)c1 [Vismodegib] + CC1(C)CCC(c2ccc(Cl)cc2)=C(CN2CCN(c3ccc(C(=O)NS(=O)(=O)c4ccc(N[C@H](CCN5CCOCC5)CSc5ccccc5)c(S(=O)(=O)C(F)(F)F)c4)cc3)CC2)C1 [Navitoclax] (partner 0.5 µM)
Outline: as §1

VE-821 + Foretinib = compound: CS(=O)(=O)c1ccc(-c2cnc(N)c(C(=O)Nc3ccccc3)n2)cc1 [VE-821] + COc1cc2c(Oc3ccc(NC(=O)C4(C(=O)Nc5ccc(F)cc5)CC4)cc3F)ccnc2cc1OCCCN1CCOCC1 [Foretinib] (partner 0.25 µM)
Outline: as §1

| Cell Line | relative viability (Ruxolitinib + Trametinib; first compound 0.08 µM) | relative viability (Ruxolitinib + Trametinib; first compound 0.253 µM) | relative viability (Ruxolitinib + Trametinib; first compound 0.8 µM) | relative viability (Ruxolitinib + Trametinib; first compound 2.53 µM) | relative viability (Ruxolitinib + Trametinib; first compound 8 µM) | relative viability (Vismodegib + Alpelisib; first compound 0.08 µM) | relative viability (Vismodegib + Alpelisib; first compound 0.253 µM) | relative viability (Vismodegib + Alpelisib; first compound 0.8 µM) | relative viability (Vismodegib + Alpelisib; first compound 2.53 µM) | relative viability (Vismodegib + Alpelisib; first compound 8 µM) | relative viability (Vismodegib + Navitoclax; first compound 0.08 µM) | relative viability (Vismodegib + Navitoclax; first compound 0.253 µM) | relative viability (Vismodegib + Navitoclax; first compound 0.8 µM) | relative viability (Vismodegib + Navitoclax; first compound 2.53 µM) | relative viability (Vismodegib + Navitoclax; first compound 8 µM) | relative viability (VE-821 + Foretinib; first compound 0.08 µM) | relative viability (VE-821 + Foretinib; first compound 0.253 µM) | relative viability (VE-821 + Foretinib; first compound 0.8 µM) | relative viability (VE-821 + Foretinib; first compound 2.53 µM) | relative viability (VE-821 + Foretinib; first compound 8 µM) |
| --- | --- | --- | --- | --- | --- | --- | --- | --- | --- | --- | --- | --- | --- | --- | --- | --- | --- | --- | --- | --- |
| NCI-H3122 | 0.232 | 0.192 | 0.21 | 0.167 | 0.227 | 0.798 | 0.726 | 0.816 | 0.78 | 0.629 | 1.01 | 1.04 | 0.994 | 0.984 | 1.02 | 0.977 | 0.995 | 0.959 | 0.986 | 0.925 |
| PC-3 [JPC-3] |  | 0.711 | 0.79 | 0.654 | 0.64 | 0.971 | 1.04 | 1.04 | 0.941 | 0.972 | 0.758 | 0.789 | 0.769 | 0.768 | 0.778 | 1.12 | 0.947 | 1.07 | 1.06 | 0.976 |
| PC-14 |  | 0.829 | 1.17 | 0.45 | 0.625 | 0.884 | 0.888 | 1.03 | 0.907 | 0.926 | 0.967 | 0.974 | 1.1 | 0.946 | 0.965 | 1.1 | 0.913 | 0.974 | 1.02 | 0.984 |
